# Test results taken from patent US20230041065A1, “METHODS FOR GENERATING HEMATOPOIETIC STEM CELLS” (The Brigham and Women`s Hospital, Inc., priority 2019, published 2023).
# “Also recorded” adds a separate entry of the source.
# Tests used:
# Dnmt3a = Dnmt3a protein level in nuclear fractions of E11.5 AGM cells; type: cell-based, mouse
# Method: (§1) RNA-sequencing analyses were performed to measure gene expression patterns in mouse AGM treated with cyclic strain or pharmacological modulators. Using computational algorithms, hierarchical clustering was performed of differentially expressed genes as well as measured their overrepresented biological processes and pathways. Gene expression clusters of differentially expressed genes were analyzed and their mean expression level across cell populations compared. Next, Venn comparison of up- and down-genes was constructed to analyze candidate(s) important for cyclic strain- or pharmacological modulator(s)-mediated the endothelial-to-HSC transition. Furthermore, Dnmt3b and Dnmt3a protein expressions were analyzed in nuclear fractions of mouse AGM cells using EqiQuick assay kits. Data are presented as mean±s.d. unless otherwise noted. Statistical analyses were performed by paired or un-paired Student's t-tests. Significance was set at P<0.05.
# (§2) Nuclear extracts from AGM explants were harvested using an EpiQuik Nuclear Extraction Kit (Epigentek Group Inc.). Dnmt3b and Dnmt3a protein levels were analyzed using a colorimetric EpiQuik Assay Kit (Epigentek Group Inc.), according to the manufacturer's instructions. Concentration of Dnmt3b and Dnmt3a is relative to 1 μg of nuclear extract proteins.
# [1] = system: human iPSC-derived hemogenic endothelial cells; test: Yoda1 treatment of human iPSC-derived hemogenic endothelial cells: EHT and gene expression; type: cell-based
# Excerpt: To determine the role of Dnmt3b in the EHT, we analyzed the endothelial and hematopoietic gene expression levels using whole transcriptome analyses. […] To consolidate our findings, we further independently measured the transcript levels of endothelial and hematopoietic genes. […] In summary, pulsation-mediated Piezo1 activation enhances Dnmt3b expression to repress endothelial genes, stimulating the endothelial-to-HSC transition. To analyze the conserved role of PIEZO1-mediated mechanosensitive mechanisms in human hematopoiesis, we employed directed differentiation of constitutive RUNX1c:tdTomato human induced pluripotent stem cells (iPSCs) to hemogenic endothelial cells, and treated such hemogenic endothelial cells with Yoda1.
# Embryoid body and hemogenic endothelium differentiation was performed as described in (Sugimura et al. 2017; Ditadi et al. 2015). Briefly, hiPSC colonies were dissociated with 0.05% trypsin for 5 min at 37° C., washed with PBS+2% FBS, and resuspended in StemPro-34 (Invitrogen, 10639-011) supplemented with L-glutamine (2 mM), penicillin/streptomycin ([…]), ascorbic acid (1 mM), human holo-Transferrin ([…], Sigma T0665), monothioglycerol (MTG, 0.4 mM), BMP4 (10 ng/ml), and Y-27632 (10 μM). Five million cells were seeded into 10 cm dishes (Ezsphere, Asahi Glass) for the spheroid formation. On Day 1, bFGF (5 ng/ml) and BMP4 (10 ng/ml) was added to the medium. On Day 2, the media was changed with the StemPro-34 supplemented with SB431542 (6 μM), CHIR99021 (3 μM), bFGF (5 ng/ml), and BMP4 (10 ng/ml). On Day 3, the medium was replaced with StemPro-34 supplemented with VEGF (15 ng/ml) and bFGF (10 ng/ml). On day 6, the medium was changed to StemPro-34 supplemented with bFGF (5 ng/ml), VEGF (15 ng/ml), interleukin (IL)-6 (10 ng/ml), IGF-1 (25 ng/ml), IL-11 (5 ng/ml), SCF (50 ng/ml) and EPO (2IU). The cells were maintained in a 5% CO2, 5% O2 and 95% humidity incubator. All cytokines were purchased from Peprotech.
# E11.5 AGM cells = test: Whole transcriptome (RNA-seq) analyses of treated E11.5 AGM cells; type: cell-based, mouse
# Method: as §1
# Total RNA from E11.5 mouse AGM explant cultures was isolated (control, stretch, Yoda1 and 4αPDD conditions) with the RNAeasy MiniKit (QIAGEN). Our cDNA libraries were generated by BGI Americas Corporation and sequenced with a HiSeq4000 device (Illumina) at eight samples per lane. We mapped our sequenced read fragments to the mouse reference genome GRCm38 (ENSEMBL release 69) using the Genomic Short-Read Nucleotide Alignment program (version 2012-07-20). DESeq2 and DEXSeq were used to test for differential expression (FDR=0.1) and differential exon use, respectively. Gene expression clusters of differentially expressed genes were analyzed and their mean expression level across cell populations compared. Next, Venn comparison was performed of up- and down-genes to analyze candidate(s) important for cyclic strain- or pharmacological modulator(s)-mediating the endothelial-to-HSC transition. Specifically, we performed hierarchical clustering with bootstrap analyses using the gplots package (Warners et al., 2017) in R (R Development Core Team, 2012). […]
# [2] = system: human PSC (DF19-9-7T)-derived hCD34+ hematopoietic cells; test: Transplantation of human PSC-derived hCD34+ hematopoietic cells in humanized mice; type: in vivo
# [3] = system: cd41:eGFP+ HSCs emerging from flk1:mCherry+ endothelial cells; test: Time-lapse confocal imaging of cd41:eGFP+ HSCs emerging from flk1:mCherry+ endothelial cells in transgenic embryos; type: in vivo, zebrafish; settings: 26-42 hpf
# Method: Mice were purchased Cd45.2 (C57BL6/J) and Cd45.1 (SJL) from The Jackson Laboratory and zebrafish morpholinos from GeneTools. Microangiography was performed by injecting fluorescent-labeled dextran dye in the atrium of zebrafish heart and its passage was recorded using live imaging. Immunostaining of zebrafish heart and mouse AGM were analyzed using an inverted fluorescent microscope. Cardiac tamponade, heart rate, and pulse frequency were analyzed in zebrafish embryos using bright field imaging or time-lapse confocal microscopy. The movement of red blood cells in blood vessels was analyzed as well as the endothelial-to-HSC transition in zebrafish transgenic embryos using time-lapse confocal imaging.
# Zebrafish embryos were treated with the following chemical modulators in E3 fish media: 100 uM L-NAME (Fisher Scientific), 50 uM Digitoxigenin (Sigma), 25-50 uM Yoda1 (Cayman Chemical), 1 uM Nanaomycin (Nana; Fisher Scientific), 100 uM Gadolinium chloride (GdCl3; Sigma), 5-10 uM 4α-phorbol 12, 13-didecanaote (4Apdd; Sigma), or GSK205 (10 uM).
# cd41:eGFP were crossed with flk1:mCherry zebrafish and flk1:mCherry with lcr:eGFP zebrafish and injected morpholino in their transgenic embryos. […] The relative movement of lcr:eGFP^+ red blood cells was analyzed in the context of flk1:mCherry^+ endothelium. We performed image analysis using Imaris (Bitplane) software.
# Dnmt3b = Dnmt3b protein level in nuclear fractions of E11.5 AGM cells; type: cell-based, mouse
# Method: as §1, §2
# [4] = human iPSC-derived hemogenic endothelial cells
smiles,measurement,setting,value
"Clc1cccc(Cl)c1CSc1nnc(-c2cnccn2)s1 [Yoda1, 2-[5-[[(2,6-Dichlorophenyl)methyl]thio]-1,3,4-thiadiazol-2-yl]-pyrazine]",Dnmt3a protein expression,Dnmt3a,not Dnmt3a; also recorded: without impacting the expression of Dnmt3a
same,human endothelial-to-hematopoietic transition,[1]; RUNX1c:tdTomato human iPSC-derived hemogenic endothelial cells,stimulated the human endothelial-to-hematopoietic transition
same,DNMT3A expression,[1]; [4],not DNMT3A expression
same,DNMT3B expression,[1]; [4],enhanced DNMT3B expression
same,"expression of endothelial genes (VEGFA, HEY2, GPR116, GNA13, CDH5, PLXND1)",[1]; [4],silenced endothelial genes
same,"expression of hematopoietic genes (RUNX1, SPI1, CEBPA, TAL1, GATA2)",[1]; [4],induced the expression of hematopoietic genes
same,Dnmt3b and Gimap6 transcript expression (Venn comparison of up-regulated genes),E11.5 AGM cells,specifically stimulate Dnmt3b transcript expression and Gimap6 transcript expression
same,expression of endothelial genes,E11.5 AGM cells,diminished expression of endothelial genes; also recorded: repress the expression of endothelial genes
same,expression of hematopoietic genes,E11.5 AGM cells,elevated expression of hematopoietic genes; also recorded: stimulating the expression of hematopoietic genes
same,"percentage of bone marrow reconstitution to human CD33+, CD3+ and CD19+ cells",[2]; primary transplant,stimulates the formation of hCD34+ hematopoietic cells that reconstitute multi-lineage blood
same,percentage of bone marrow chimerism,"[2]; primary transplant, after 8-10 weeks",enhances the formation of engraftable human CD34+ cells; also recorded: enhances the formation of engraftable hCD34+ cells
same,"percentage peripheral blood reconstitution to human CD33+, CD3+ and CD19+ cells",[2]; secondary transplant,stimulates the formation of human LT-HSCs that reconstitute multi-lineage blood upon serial transplantation
same,percentage of peripheral blood chimerism,"[2]; secondary transplant, after 16 weeks",enhances the formation of self-renewing LT-HSCs
same,HSC formation (endothelial-to-HSC transition),[3]; control embryos,stimulates HSC formation in control embryos
same,HSC formation (endothelial-to-HSC transition),[3]; sih-MO embryos,rescues HSC formation in sih-MO embryos
same,Dnmt3b protein expression,Dnmt3b,specifically stimulates Dnmt3b protein expression levels
